From US11331273B2, “Film-coated tablet having high chemical stability of active ingredient” (Intercept Pharmaceuticals, Inc., priority 2016, dated 2022)
Where “and” joins values, the source holds several entries; their conditions need not be identical. Equal values may be shown once.

Assay: Storage stability of obeticholic acid (unmodified) in test tubes: dimer quantified per Test Example 2
Assay type: physicochemical
Method: Obeticholic acid (unmodified) was weighed out in amounts of 5 mg into test tubes to serve as individual samples.
Test Lubes containing the obeticholic acid (unmodified) prepared in Example 1 were stored under the following conditions. The amounts of obeticholic acid dimer generated before (initial) and after storage were measured in accordance with Test Example 2. • Four weeks (4 W) at 50° C. and 85% RH (open) • Four weeks (4 W) at 60° C. (closed)
The amount of obeticholic acid dimer generated was measured in the same manner described in Test Example 1, with the exception that the sample solution was prepared as follows.
Acetonitrile/water (9/1) was added in an amount of exactly 10 mL to test tubes that had been retrieved from storage, and the contents were ultrasounded to extract the obeticholic acid. Following centrifugation (10 min at 3000 rpm), the supernatant was made into samples for HPLC assay (500 μg/mL obeticholic acid).

SMILES: CC[C@H]1[C@@H](O)[C@@H]2[C@H](CC[C@]3(C)[C@@H]([C@H](C)CCC(=O)O)CC[C@@H]23)[C@@]2(C)CC[C@@H](O)C[C@@H]12 [Comparative Example 3, 3α,7α-dihydroxy-6α-ethyl-5β-cholan-24-oic acid]
- Amount of obeticholic acid dimer production (%) (50° C., 85% RH, open, 4 W): 0.83%
- Increase (%) in obeticholic acid dimerization from initial product (50° C., 85% RH, open, 4 W): 0.79%
- Amount of obeticholic acid dimer production (%) (60° C., closed, 4 W): 0.81%
- Increase (%) in obeticholic acid dimerization from initial product (60° C., closed, 4 W): 0.77% and 0.78%
- Amount of obeticholic acid dimer production (%) (Initial): 0.04%
